# Reference: patent US5349063A, “Pancreatic imaging agents” (priority 1993, dated 1994)
# Legend:
# [1] = Pancreas uptake and pancreas to liver ratio in Balb/c mice (radioiodine biodistribution); format: in vivo; conditions: for P/L (percent dose in pancreas / percent dose in liver) / Pancreas uptake (mean percent administered dose per organ): I-125 label, 20 μg i.v., male Balb/c mice, mean ± standard deviation; for pancreas/liver ratios compared with HIPDM: all time periods from 30 minutes to 24 hours
# Description: The pancreatic uptake and pancreas/liver ratio of I-125 ERC 9 (prepared as in Examples 1 and 2) and I-125-HIPDM were compared in mice. Male Balb/c mice were injected via the tail vein with I-125 ERC 9 or I-125 HIPDM (20 μg, 0.01 MBq, in 0.1 ml). At specific time periods from 5 minutes to 24 hours after administration, six mice from each group were killed by CO2 asphyxiation. Blood samples were taken and various organs (including the pancreas and liver) were removed. The radioiodine uptake in various organs was determined by counting in a gamma spectrometric detector. The amount of radioactivity in each organ or tissue was compared to that in a standard of the injected dose. The percent uptake was calculated for each organ of each animal. The pancreas to liver ratio was calculated by dividing the percent uptake in the pancreas by the percent uptake in the liver. The mean uptake in the organs and the mean pancreas/liver ratio was calculated for the animals at each time period.
# The pancreatic uptake and pancreas/liver ratios of I-125 ERC 46 and I-125 HIPDM were compared in Balb/c mice as described in Example 6.
# The pancreas uptake and pancreas/liver ratios of I-125 ERC 90 and I-125 HIPDM were compared in Balb/c mice as described in Example 6.
# The pancreas uptakes and pancreas/liver ratios of I-125 ERC 94 and I-125 HIPDM were compared in Balb/c mice as described in Example 6.
# [2] = Toxicity in mice; format: in vivo, Balb/c mice
# Description: It was assumed that the maximum human dose of ERC 9 would be 2 mg per 50 kg (or […]) body weight. Mouse studies were done at a rate of 500 times the maximum human dose on a weight basis. Five Balb/c male and five Balb/c female mice were injected via the tail vein with 0,005 ml per gram body weight of a solution of ERC 9 in water (4 mg per ml) on each of three occasions one day apart. The animals were maintained for 30 days.
# [3] = Human radiation dosimetry of I-123 ERC 9 estimated from tissue distribution in mice (MIRD); parameters: species or system human (from Balb/c mouse data); conditions: MIRD calculation from mouse tissue distribution
# Description: The human radiation dose from I-123 ERC 9 was estimated from tissue distribution data in mice.
# Male Balb/c mice were injected via the tail vein with I-125 ERC 9 (20 μg, 0.01 MBq, in 0.1 ml). At specific time periods from 5 minutes to 24 hours after administration, six mice were killed by CO2 asphyxiation. Blood samples were taken and various organs were removed. The radioiodine uptake in various organs and tissues was determined by counting in a gamma spectrometric detector. The amount of radioactivity in each organ or tissue was compared to that in a standard of the injected dose. The percent uptake was calculated for each organ of each animal. The mean percent uptake in the organs was calculated for the animals at each time period.
# The mean uptakes for each of the organs and tissues were plotted versus time on semilogarithmic paper. From these plots, the uptake and clearance half times for each of the organs and tissues were calculated.
# Using these values and the MIRD (Society of Nuclear Medicine) method of dosimetry calculations, the human radiation doses from I-123 were calculated.
# [4] = Pancreatic imaging in human volunteers (planar and SPECT gamma camera); format: in vivo
# Description: Imaging studies have been done in two human volunteers using I-123 ERC 9.
# I-123 ERC 9 (185 MBq, 2 mg), prepared as in Example 2, was injected intravenously into the two volunteers. Using a gamma camera with SPECT (Single Photon Emission Computed Tomography) capability, planar images were obtained at 30 minutes, 1.5 hours, 3 hours and 24 hours after injection. SPECT images were obtained at 3-4 hours after injection.
# [5] = rats and mice; Yamamoto et al.; cited from earlier work
# [6] = cited from earlier work
# [7] = cited from earlier work; remark: listed apart in the source
# [8] = 4 and 24 hours after administration
# [9] = 30 minutes after administration
# [10] = 500 times maximum human dose, i.v., three occasions one day apart, maintained 30 days
# [11] = I-123 ERC 9, 185 MBq, 2 mg i.v.
# [12] = planar and SPECT images, 3-4 hours
# [13] = human clinical studies, Yamamoto et al.
"pancreas uptake compared with HIPDM [1, 8]",P/L (percent dose in pancreas / percent dose in liver) ([1]; 5 minutes after administration),"P/L (percent dose in pancreas / percent dose in liver) [1, 9]",P/L (percent dose in pancreas / percent dose in liver) ([1]; 1 hour after administration),P/L (percent dose in pancreas / percent dose in liver) ([1]; 4 hours after administration),P/L (percent dose in pancreas / percent dose in liver) ([1]; 24 hours after administration),pancreas/liver ratios compared with HIPDM [1],pancreas uptake compared with HIPDM ([1]; early time periods),Compound,Pancreas uptake (mean percent administered dose per organ) ([1]; 5 minutes after administration),"Pancreas uptake (mean percent administered dose per organ) [1, 9]",Pancreas uptake (mean percent administered dose per organ) ([1]; 1 hour after administration),Pancreas uptake (mean percent administered dose per organ) ([1]; 4 hours after administration),Pancreas uptake (mean percent administered dose per organ) ([1]; 24 hours after administration),other results
higher pancreas uptake than did HIPDM,0.22 ± 0.04,0.54 ± 0.09,0.78 ± 0.20,2.11 ± 0.32,7.47 ± 1.40,significantly higher,lower,"Cc1cc([125I])cc(CN(C)CCCN2CCCC2)c1O [ERC 46, N[3(1-Pyrrolidino)propyl]-N-methyl-2-hydroxy-3-methyl-5-iodobenzylamine]",1.34 ± 0.32 percent administered dose per,4.14 ± 0.68 percent administered dose per,3.74 ± 0.69 percent administered dose per,5.95 ± 0.78 percent administered dose per,4.91 ± 0.43 percent administered dose per,–
–,0.21 ± 0.03,0.32 ± 0.04,0.46 ± 0.06,0.95 ± 0.14,1.18 ± 0.47,–,–,"Cc1cc([125I])cc(CN(C)CCCN(C)C)c1O [HIPDM, N,N,N'-trimethyl-N'[2-hydroxy-3-methyl-5-iodobenzyl]-1,3-propanediamine, reference compound]",–,–,–,–,–,"localisation in the pancreas [5]: some localisation of HIPDM in the pancreas; differentiation between pancreatic and liver retention [6, 13]: difficult; pancreas/liver ratios [6, 13]: not optimal for clinical use; suitability for clinical use ([6]; human): unsatisfactory for clinical use"
higher pancreas uptakes than did HIPDM,0.22 ± 0.04,0.50 ± 0.11,0.80 ± 0.18,2.12 ± 0.35,6.70 ± 1.42,significantly higher,lower,"Cc1cc([125I])cc(CN(C)CCCN2CCCCC2)c1O [ERC 90, N[3(1-piperidino)propyl]-N-methyl-2-hydroxy-3-methyl-5-iodobenzylamine]",1.32 ± 0.34 percent administered dose per,2.73 ± 0.59 percent administered dose per,3.62 ± 0.84 percent administered dose per,5.35 ± 0.88 percent administered dose per,5.59 ± 0.60 percent administered dose per,–
–,–,–,–,–,–,–,–,C[75Se]CCC(N)C(=O)O (stereo not shown) [Se-75 selenomethionine],–,–,–,–,–,pancreatic visualisation ([7]; in vivo): inconsistency of pancreatic visualisation; patient radiation dose ([7]; selenium-75): high patient radiation dose
–,0.22 ± 0.04,0.61 ± 0.06,0.67 ± 0.19,1.61 ± 0.26,4.03 ± 1.76,significantly higher,–,"CCN(CC)CCCN(C)Cc1cc([125I])cc(C)c1O [ERC 94, N[3(diethylamino)propyl]-N-methyl-2-hydroxy-3-methyl-5-iodobenzylamine]",1.56 ± 0.26 percent administered dose per,2.86 ± 0.48 percent administered dose per,3.45 ± 0.90 percent administered dose per,4.65 ± 0.67 percent administered dose per,3.76 ± 1.62 percent administered dose per,pancreas uptakes compared with HIPDM ([1]; all time periods studied except 24 hours): lower than those of HIPDM

Compound,"pancreas uptake compared with HIPDM [1, 8]",P/L (percent dose in pancreas / percent dose in liver) ([1]; 5 minutes after administration),"P/L (percent dose in pancreas / percent dose in liver) [1, 9]",P/L (percent dose in pancreas / percent dose in liver) ([1]; 1 hour after administration),P/L (percent dose in pancreas / percent dose in liver) ([1]; 4 hours after administration),P/L (percent dose in pancreas / percent dose in liver) ([1]; 24 hours after administration),pancreas/liver ratios compared with HIPDM [1],pancreas uptake compared with HIPDM ([1]; early time periods),Pancreas uptake (mean percent administered dose per organ) ([1]; 5 minutes after administration),"Pancreas uptake (mean percent administered dose per organ) [1, 9]",Pancreas uptake (mean percent administered dose per organ) ([1]; 1 hour after administration),Pancreas uptake (mean percent administered dose per organ) ([1]; 4 hours after administration),Pancreas uptake (mean percent administered dose per organ) ([1]; 24 hours after administration),other results
"Cc1cc([125I])cc(CN(C)CCCN2CCOCC2)c1O [ERC 9, N[3(4-morpholino)propyl]-N-methyl-2-hydroxy-3-methyl-5-iodobenzylamine]",–,0.40 ± 0.10,0.61 ± 0.05,0.66 ± 0.14,2.02 ± 0.67,2.54 ± 0.34,–,–,2.08 ± 0.90 percent administered dose per organ,4.52 ± 0.75 percent administered dose per organ,4.79 ± 0.70 percent administered dose per organ,6.60 ± 1.84 percent administered dose per organ,3.30 ± 0.53 percent administered dose per organ,"mean pancreas/liver ratio compared with HIPDM ([1]; at all time intervals): greater than that for HIPDM; histological examination of various organs and tissues [2, 10]: no changes that could be attributed to chemical toxicity; immediate or delayed toxicity [2, 10]: no indication of immediate or delayed toxicity; chemical toxicity ([2]; animal studies): low chemical toxicity; human radiation dose to the pancreas [3]: approximately 15.5 mGy per 111 MBq; visualization of the pancreas ([4]; 24 hours after injection): less than optimal although still present; quality of pancreatic images ([4]; FIGS. 2 and 3, human volunteers): High quality pancreatic images; time at which uptake of the radiotracer was seen [4, 11]: ≤ 30 min; time of optimum pancreatic uptake and pancreas/liver ratio [4, 11]: 3 to 4 h; accumulation of radiolabel in pancreas [4, 12]: high degree of accumulation of radiolabel in normal human pancreas; discrimination of pancreas from other abdominal organs [4, 12]: good discrimination of pancreas from other abdominal organs"
